Laboratory results reported in patent publication US11713335B2, “Aminocoumarin compounds and methods of their use” (President and Fellows of Harvard College, priority 2018, dated 2023).
≈ marks a conversion by molar mass, not a printed value. Like-named read-outs stand apart in the source and are kept apart here.

Assays:
A. baumannii 19606 = experiment: Minimal inhibitory concentration, A. baumannii 19606; format: cell-based; conditions: 16 hour minimal inhibitory concentration at 37° C., read-out: MIC (μM) A. baumannii 19606
Summary of the method: (§1)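 Overnight cultures in LB (TSA for S. aureus) at 37 °C, diluted 1:100 twice, then exposed to twofold serial dilutions of compound from DMSO stock. Plates incubated unshaken 16 h at 37 °C and read at OD600. MIC (µM) is the lowest concentration inhibiting growth.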

WT E. coli = experiment: Minimal inhibitory concentration in wild-type E. coli; format: cell-based, Escherichia coli; conditions: read-out: MIC (μM) in WT E. coli
Summary of the method: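 Broth microdilution: saturated LB overnight culture diluted 1:100 twice, compound serially two-fold diluted across the plate from DMSO stock. Static incubation 16 hours at 37° C, OD600 read; MIC taken as lowest concentration inhibiting growth.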

E. coli 25922 = experiment: Minimal inhibitory concentration, E. coli 25922; format: cell-based; conditions: 16 hour minimal inhibitory concentration at 37° C., read-out: MIC (μM) E. coli 25922
Summary of the method: as §1

S. aureus MW2 = experiment: Minimal inhibitory concentration, S. aureus MW2; format: cell-based; conditions: read-out: MIC (μM) S. aureus MW2 (MRSA)
Summary of the method: as §1

S. aureus RN4220 = experiment: Minimal inhibitory concentration, S. aureus RN4220; format: cell-based; conditions: 16 hour minimal inhibitory concentration at 37° C., read-out: MIC (μM) S. aureus RN4220
Summary of the method: as §1

K. pneumoniae 700721 = experiment: Minimal inhibitory concentration, K. pneumoniae 700721; format: cell-based; conditions: 16 hour minimal inhibitory concentration at 37° C., read-out: MIC (μM) K. pneumoniae 700721
Summary of the method: as §1

E. coli MC4100 = experiment: Minimal inhibitory concentration, E. coli MC4100; format: cell-based; conditions: 16 hour minimal inhibitory concentration at 37° C., read-out: MIC (μM) E. coli MC4100 ara+
Summary of the method: as §1

E. cloacae 13047 = experiment: Minimal inhibitory concentration, E. cloacae 13047; format: cell-based; conditions: 16 hour minimal inhibitory concentration at 37° C., read-out: MIC (μM) E. cloacae 13047
Summary of the method: as §1

[1] = wild-type E. coli, 37° C., 16 hours
[2] = 16 hour minimal inhibitory concentration at 37° C.

CO[C@@H]1[C@@H](OC(N)=O)[C@@H](O)[C@H](Oc2ccc3c(O)c(NC(=O)c4cccc5ccn(C)c45)c(=O)oc3c2C)OC1(C)C [Compound 74]
MIC (A. baumannii 19606): >50 µM
MIC (WT E. coli; [1]): >300 µM
MIC (E. coli 25922): >200 µM
MIC (S. aureus MW2; [2]): >100 µM
MIC (S. aureus RN4220): >100 µM
MIC (K. pneumoniae 700721): >100 µM
MIC (E. coli MC4100): >200 µM
MIC (E. cloacae 13047): >100 µM

CO[C@@H]1[C@@H](OC(N)=O)[C@@H](O)[C@H](Oc2ccc3c(O)c(NC(=O)c4cc(-c5ccccc5)cc(-c5ccccc5)c4)c(=O)oc3c2C)OC1(C)C [Compound 75]
MIC (A. baumannii 19606): >50 µM
MIC (WT E. coli; [1]): >300 µM
MIC (E. coli 25922): >200 µM
MIC (S. aureus MW2; [2]): 9 µM (≈ 6.13 µg/mL)
MIC (S. aureus RN4220): 18 µM (≈ 12.3 µg/mL)
MIC (K. pneumoniae 700721): >100 µM
MIC (E. coli MC4100): >200 µM
MIC (E. cloacae 13047): >100 µM

CO[C@@H]1[C@@H](OC(N)=O)[C@@H](O)[C@H](Oc2ccc3c(O)c(NC(=O)c4ccc(C#Cc5ccccc5)cc4)c(=O)oc3c2C)OC1(C)C [Compound 76]
MIC (A. baumannii 19606): 40 µM (≈ 25.1 µg/mL)
MIC (WT E. coli; [1]): 40 µM (≈ 25.1 µg/mL)
MIC (E. coli 25922): 80 µM (≈ 50.3 µg/mL)
MIC (S. aureus MW2; [2]): 3 µM (≈ 1.89 µg/mL)
MIC (S. aureus RN4220): 5 µM (≈ 3.14 µg/mL)
MIC (K. pneumoniae 700721): >100 µM
MIC (E. coli MC4100): 40 µM (≈ 25.1 µg/mL)
MIC (E. cloacae 13047): >100 µM

CO[C@@H]1[C@@H](OC(N)=O)[C@@H](O)[C@H](Oc2ccc3c(O)c(NC(=O)c4ccc(CCc5ccccc5)cc4)c(=O)oc3c2C)OC1(C)C [Compound 77]
MIC (A. baumannii 19606): >50 µM
MIC (WT E. coli; [1]): 40 µM (≈ 25.3 µg/mL)
MIC (E. coli 25922): 40 µM (≈ 25.3 µg/mL)
MIC (S. aureus MW2; [2]): 5 µM (≈ 3.16 µg/mL)
MIC (S. aureus RN4220): 10 µM (≈ 6.33 µg/mL)
MIC (K. pneumoniae 700721): >100 µM
MIC (E. coli MC4100): 40 µM (≈ 25.3 µg/mL)
MIC (E. cloacae 13047): >100 µM

CO[C@@H]1[C@@H](OC(N)=O)[C@@H](O)[C@H](Oc2ccc3c(O)c(NC(=O)c4cc(O)cc(-c5ccccc5)c4)c(=O)oc3c2C)OC1(C)C [Compound 78]
MIC (A. baumannii 19606): 40 µM (≈ 24.8 µg/mL)
MIC (WT E. coli; [1]): 59 µM (≈ 36.6 µg/mL)
MIC (E. coli 25922): 40 µM (≈ 24.8 µg/mL)
MIC (S. aureus MW2; [2]): 4 µM (≈ 2.48 µg/mL)
MIC (S. aureus RN4220): 5 µM (≈ 3.1 µg/mL)
MIC (K. pneumoniae 700721): >100 µM
MIC (E. coli MC4100): 59 µM (≈ 36.6 µg/mL)
MIC (E. cloacae 13047): >100 µM

CO[C@@H]1[C@@H](OC(N)=O)[C@@H](O)[C@H](Oc2ccc3c(O)c(NC(=O)c4ccc(O)c(-c5ccc(F)cc5)c4)c(=O)oc3c2C)OC1(C)C [Compound 79]
MIC (A. baumannii 19606): 20 µM (≈ 12.8 µg/mL)
MIC (WT E. coli; [1]): 26 µM (≈ 16.6 µg/mL)
MIC (E. coli 25922): 20 µM (≈ 12.8 µg/mL)
MIC (S. aureus MW2; [2]): 0.98 µM (≈ 0.626 µg/mL)
MIC (S. aureus RN4220): 2 µM (≈ 1.28 µg/mL)
MIC (K. pneumoniae 700721): 78 µM (≈ 49.8 µg/mL)
MIC (E. coli MC4100): 26 µM (≈ 16.6 µg/mL)
MIC (E. cloacae 13047): >100 µM

CO[C@@H]1[C@@H](OC(N)=O)[C@@H](O)[C@H](Oc2ccc3c(O)c(NC(=O)c4ccc(O)c(C/C=C/C(C)=O)c4)c(=O)oc3c2C)OC1(C)C [Compound 81]
MIC (A. baumannii 19606; Acinetobacter baumannii, 19606): > 50 µM
MIC (WT E. coli; Escherichia coli, 16 h): > 300 µM
MIC (E. coli 25922; Escherichia coli, 25922): > 200 µM
MIC (S. aureus MW2; Staphylococcus aureus, MRSA, 16 h): 40 µM (≈ 25.1 µg/mL)
MIC (S. aureus RN4220; Staphylococcus aureus, RN4220, 16 h): 40 µM (≈ 25.1 µg/mL)
MIC (K. pneumoniae 700721; Klebsiella pneumoniae, 700721): > 100 µM
MIC (E. coli MC4100; Escherichia coli, MC4100): > 200 µM
MIC (E. cloacae 13047; Enterobacter cloacae, 13047): > 100 µM

CO[C@@H]1[C@@H](OC(N)=O)[C@@H](O)[C@H](Oc2ccc3c(O)c(NC(=O)c4ccc(O)c(C/C=C/C(=O)O)c4)c(=O)oc3c2C)OC1(C)C [Compound 82]
MIC (A. baumannii 19606): >50 µM
MIC (WT E. coli; [1]): >300 µM
MIC (E. coli 25922): >200 µM
MIC (S. aureus MW2; [2]): >100 µM
MIC (S. aureus RN4220): >100 µM
MIC (K. pneumoniae 700721): >100 µM
MIC (E. coli MC4100): >200 µM
MIC (E. cloacae 13047): >100 µM

CO[C@@H]1[C@@H](OC(N)=O)[C@@H](O)[C@H](Oc2ccc3c(O)c(NC(=O)c4ccc(O)c(-c5ccccc5)c4)c(=O)oc3c2C)OC1(C)C [Compound 83]
MIC (A. baumannii 19606): 20 µM (≈ 12.4 µg/mL)
MIC (WT E. coli; [1]): 26 µM (≈ 16.1 µg/mL)
MIC (E. coli 25922): 40 µM (≈ 24.8 µg/mL)
MIC (S. aureus MW2; [2]): 2.5 µM (≈ 1.55 µg/mL)
MIC (S. aureus RN4220): 3 µM (≈ 1.86 µg/mL)
MIC (K. pneumoniae 700721): >100 µM
MIC (E. coli MC4100): 26 µM (≈ 16.1 µg/mL)
MIC (E. cloacae 13047): >100 µM

CO[C@@H]1[C@@H](OC(N)=O)[C@@H](O)[C@H](Oc2ccc3c(O)c(NC(=O)c4cc(-c5ccc(F)cc5)c(O)cc4O)c(=O)oc3c2C)OC1(C)C [Compound 84]
MIC (A. baumannii 19606): >50 µM
MIC (WT E. coli; [1]): 8 µM (≈ 5.24 µg/mL)
MIC (E. coli 25922): 10 µM (≈ 6.55 µg/mL)
MIC (S. aureus MW2; [2]): 5 µM (≈ 3.27 µg/mL)
MIC (S. aureus RN4220): 5 µM (≈ 3.27 µg/mL)
MIC (K. pneumoniae 700721): 40 µM (≈ 26.2 µg/mL)
MIC (E. coli MC4100): 8 µM (≈ 5.24 µg/mL)
MIC (E. cloacae 13047): 81 µM (≈ 53 µg/mL)

CO[C@@H]1[C@@H](OC(N)=O)[C@@H](O)[C@H](Oc2ccc3c(O)c(NC(=O)c4cc(-c5ccccc5)ccc4N)c(=O)oc3c2C)OC1(C)C [Compound 85]
MIC (A. baumannii 19606): >50 µM
MIC (WT E. coli; [1]): 59 µM (≈ 36.6 µg/mL)
MIC (E. coli 25922): 40 µM (≈ 24.8 µg/mL)
MIC (S. aureus MW2; [2]): 2.5 µM (≈ 1.55 µg/mL)
MIC (S. aureus RN4220): 5 µM (≈ 3.1 µg/mL)
MIC (K. pneumoniae 700721): >100 µM
MIC (E. coli MC4100): 59 µM (≈ 36.6 µg/mL)
MIC (E. cloacae 13047): >100 µM

CO[C@@H]1[C@@H](OC(N)=O)[C@@H](O)[C@H](Oc2ccc3c(O)c(NC(=O)c4ccc(N)c(-c5ccccc5)c4)c(=O)oc3c2C)OC1(C)C [Compound 86]
MIC (A. baumannii 19606): >50 µM
MIC (WT E. coli; [1]): 18 µM (≈ 11.2 µg/mL)
MIC (E. coli 25922): 20 µM (≈ 12.4 µg/mL)
MIC (S. aureus MW2; [2]): 20 µM (≈ 12.4 µg/mL)
MIC (S. aureus RN4220): 20 µM (≈ 12.4 µg/mL)
MIC (K. pneumoniae 700721): 40 µM (≈ 24.8 µg/mL)
MIC (E. coli MC4100): 18 µM (≈ 11.2 µg/mL)
MIC (E. cloacae 13047): >100 µM

CO[C@@H]1[C@@H](OC(N)=O)[C@@H](O)[C@H](Oc2ccc3c(O)c(NC(=O)c4cc(-c5ccccc5)ccc4O)c(=O)oc3c2C)OC1(C)C [Compound 87]
MIC (A. baumannii 19606): >50 µM
MIC (WT E. coli; [1]): 18 µM (≈ 11.2 µg/mL)
MIC (E. coli 25922): 20 µM (≈ 12.4 µg/mL)
MIC (S. aureus MW2; [2]): 20 µM (≈ 12.4 µg/mL)
MIC (S. aureus RN4220): 20 µM (≈ 12.4 µg/mL)
MIC (K. pneumoniae 700721): 40 µM (≈ 24.8 µg/mL)
MIC (E. coli MC4100): 18 µM (≈ 11.2 µg/mL)
MIC (E. cloacae 13047): >100 µM

CO[C@@H]1[C@@H](OC(N)=O)[C@@H](O)[C@H](Oc2ccc3c(O)c(NC(=O)c4cccc(-c5ccccc5)c4O)c(=O)oc3c2C)OC1(C)C [Compound 88]
MIC (A. baumannii 19606): >50 µM
MIC (WT E. coli; [1]): 89 µM (≈ 55.2 µg/mL)
MIC (E. coli 25922): 161 µM (≈ 99.9 µg/mL)
MIC (S. aureus MW2; [2]): 81 µM (≈ 50.3 µg/mL)
MIC (S. aureus RN4220): >100 µM
MIC (K. pneumoniae 700721): >100 µM
MIC (E. coli MC4100): 89 µM (≈ 55.2 µg/mL)
MIC (E. cloacae 13047): >100 µM
